# According to ChEMBL document CHEMBL4038272, “Synthesis and biological evaluation of novel podophyllotoxin-NSAIDs conjugates as multifunctional anti-MDR agents against resistant human hepatocellular carcinoma Bel-7402/5-FU cells” (Eur J Med Chem, 2017):
# The source made the active and inactive calls. The calls are words filed in the database; no cut-off is given here.
# How the values were obtained:
# Bel-7402 = assay: Antiproliferative activity against human Bel7402 cells after 72 hrs by CCK-8 assay; format: functional, cell-based; details: Bel-7402, 72 h
# Bel7402/5-FU [1] = assay: Antiproliferative activity against human Bel7402/5-FU cells after 72 hrs by CCK-8 assay; format: functional, cell-based
# L02 = assay: Antiproliferative activity against human LO2 cells after 72 hrs by CCK-8 assay; format: cell-based; details: L02, 72 h
# [2] = Resistant factor, ratio of IC50 for human Bel7402/5-FU cells to IC50 for human Bel7402 cells; format: functional
# Bel7402/5-FU [3] = assay: Cell cycle arrest in human Bel7402/5-FU cells assessed as accumulation at G1 phase at 10 uM after 48 hrs by propidium iodide staining based flow cytometry (reference value: 52.21%); format: functional
# Bel7402/5-FU [4] = assay: Cell cycle arrest in human Bel7402/5-FU cells assessed as accumulation at S phase at 10 uM after 48 hrs by propidium iodide staining based flow cytometry (reference value: 12.62%); format: functional
# Bel7402/5-FU [5] = assay: Cell cycle arrest in human Bel7402/5-FU cells assessed as accumulation at G2 phase at 10 uM after 48 hrs by propidium iodide staining based flow cytometry (reference value: 35.16%); format: functional
# Bel7402/5-FU [6] = assay: Induction of apoptosis in human Bel7402/5-FU cells assessed as reduction in cell number at 10 uM after 24 hrs by Hoechst 33342 staining based fluorescent microscopic method; format: functional
# Bel7402/5-FU [7] = assay: Induction of apoptosis in human Bel7402/5-FU cells assessed as morphological changes at 10 uM after 24 hrs by Hoechst 33342 staining based fluorescent microscopic method; format: functional, cell-based
# Bel7402/5-FU [8] = assay: Induction of apoptosis in human Bel7402/5-FU cells assessed as condensed nuclei at 10 uM after 24 hrs by Hoechst 33342 staining based fluorescent microscopic method; format: functional, cell-based
# Bel7402/5-FU [9] = assay: Induction of apoptosis in human Bel7402/5-FU cells at 10 uM after 24 hrs by Hoechst 33342 staining based fluorescent microscopic method; format: functional, cell-based
# Bel7402/5-FU [10] = assay: Induction of apoptosis in human Bel7402/5-FU cells assessed as live cells at 10 uM after 48 hrs by Annexin V-APC/7-AAD staining based flow cytometry (reference value: 91.08%); format: functional
# Bel7402/5-FU [11] = assay: Induction of apoptosis in human Bel7402/5-FU cells assessed as early apoptotic cells at 10 uM after 48 hrs by Annexin V-APC/7-AAD staining based flow cytometry (reference value: 5.24%); format: functional
# Bel7402/5-FU [12] = assay: Induction of apoptosis in human Bel7402/5-FU cells assessed as late apoptotic cells at 10 uM after 48 hrs by Annexin V-APC/7-AAD staining based flow cytometry (reference value: 3%); format: functional
# Bel7402/5-FU [13] = assay: Induction of apoptosis in human Bel7402/5-FU cells assessed as necrotic cells at 10 uM after 48 hrs by Annexin V-APC/7-AAD staining based flow cytometry (reference value: 0.58%); format: functional
# Bel7402/5-FU [14] = assay: Induction of microtubule disruption in human Bel7402/5-FU cells at 10 uM after 24 to 48 hrs by DAPI staining based immunofluorescence microscopic method; format: functional, cell-based
# Bel7402/5-FU [15] = assay: Reduction in microtubule density in human Bel7402/5-FU cells at 10 uM after 24 to 48 hrs by DAPI staining based immunofluorescence microscopic method; format: functional, cell-based
# Bel7402/5-FU [16] = assay: Antimigratory activity in human Bel7402/5-FU cells at 10 uM after 24 hrs by wound healing assay; format: functional, cell-based
# Bel7402/5-FU [17] = assay: Effect on CDK1 expression in human Bel7402/5-FU cells assessed as ratio of CDK1 to beta-actin level at 10 uM after 48 hrs by Western blot analysis (reference value: 0.33); format: functional
# Bel7402/5-FU [18] = assay: Effect on CDK2 expression in human Bel7402/5-FU cells assessed as ratio of CDK2 to beta-actin level at 10 uM after 48 hrs by Western blot analysis (reference value: 0.43); format: functional
# Bel7402/5-FU [19] = assay: Effect on cyclinA expression in human Bel7402/5-FU cells assessed as ratio of cyclinA to beta-actin level at 10 uM after 48 hrs by Western blot analysis (reference value: 0.39); format: functional
# Bel7402/5-FU [20] = assay: Effect on cyclinB1 expression in human Bel7402/5-FU cells assessed as ratio of cyclinB1 to beta-actin level at 10 uM after 48 hrs by Western blot analysis (reference value: 0.53); format: functional
# Bel7402/5-FU [21] = assay: Induction of apoptosis in human Bel7402/5-FU cells assessed as ratio of cleaved caspase-3 to beta-actin level at 10 uM after 48 hrs by Western blot analysis (reference value: 0.19); format: functional
# Bel7402/5-FU [22] = assay: Induction of apoptosis in human Bel7402/5-FU cells assessed as ratio of cleaved caspase-8 to beta-actin level at 10 uM after 48 hrs by Western blot analysis (reference value: 0.17); format: functional
# Bel7402/5-FU [23] = assay: Induction of apoptosis in human Bel7402/5-FU cells assessed as ratio of cleaved caspase-9 to beta-actin level at 10 uM after 48 hrs by Western blot analysis (reference value: 0.17); format: functional
# Bel7402/5-FU [24] = assay: Induction of apoptosis in human Bel7402/5-FU cells assessed as ratio of cleaved PARP to beta-actin level at 10 uM after 48 hrs by Western blot analysis (reference value: 0.2); format: functional
# Bel7402/5-FU [25] = assay: Effect on VEGFR2 expression in human Bel7402/5-FU cells assessed as ratio of VEGFR2 to beta-actin level at 10 uM after 48 hrs by Western blot analysis (reference value: 0.25); format: functional
# Bel7402/5-FU [26] = assay: Effect on MMP2 expression in human Bel7402/5-FU cells assessed as ratio of MMP2 to beta-actin level at 10 uM after 48 hrs by Western blot analysis (reference value: 0.3); format: functional
# Bel7402/5-FU [27] = assay: Effect on E-cadherin expression in human Bel7402/5-FU cells assessed as ratio of E-cadherin to beta-actin level at 10 uM after 48 hrs by Western blot analysis (reference value: 0.2); format: functional
# Bel7402/5-FU [28] = assay: Effect on COX1 expression in human Bel7402/5-FU cells assessed as ratio of COX1 to beta-actin level at 10 uM after 48 hrs by Western blot analysis (reference value: 0.48); format: functional
# Bel7402/5-FU [29] = assay: Effect on COX2 expression in human Bel7402/5-FU cells assessed as ratio of COX2 to beta-actin level at 10 uM after 48 hrs by Western blot analysis (reference value: 0.36); format: functional
# Bel7402/5-FU [30] = assay: Effect on iNOS expression in human Bel7402/5-FU cells assessed as ratio of iNOS to beta-actin level at 10 uM after 48 hrs by Western blot analysis (reference value: 0.13); format: functional
# Bel7402/5-FU [31] = assay: Effect on P-gp expression in human Bel7402/5-FU cells assessed as ratio of P-gp to beta-actin level at 10 uM after 48 hrs by Western blot analysis (reference value: 0.59); format: functional
# Bel7402/5-FU [32] = assay: Effect on MRP1 expression in human Bel7402/5-FU cells assessed as ratio of MRP1 to beta-actin level at 10 uM after 48 hrs by Western blot analysis (reference value: 0.58); format: functional
# [33] = target: Mitogen-activated protein kinase; ERK1/ERK2 (Homo sapiens) (UniProt P27361+P28482); assay: Effect on ERK1/2 phosphorylation in human Bel7402/5-FU cells assessed as ratio of phosphorylated ERK1/2 to beta-actin level at 10 uM after 48 hrs by Western blot analysis (reference value: 0.59); format: cell-based
# [34] = target: Signal transducer and activator of transcription 3 (Homo sapiens) (UniProt P40763); assay: Effect on STAT3 phosphorylation in human Bel7402/5-FU cells assessed as ratio of phosphorylated STAT3 to beta-actin level at 10 uM after 48 hrs by Western blot analysis (reference value: 0.3); format: cell-based
# [35] = target: RAC-alpha serine/threonine-protein kinase (Homo sapiens) (UniProt P31749); assay: Effect on AKT phosphorylation in human Bel7402/5-FU cells assessed as ratio of phosphorylated AKT to beta-actin level at 10 uM after 48 hrs by Western blot analysis (reference value: 0.39); format: cell-based
# Sequence of RAC-alpha serine/threonine-protein kinase (Homo sapiens) (P31749 whole entry): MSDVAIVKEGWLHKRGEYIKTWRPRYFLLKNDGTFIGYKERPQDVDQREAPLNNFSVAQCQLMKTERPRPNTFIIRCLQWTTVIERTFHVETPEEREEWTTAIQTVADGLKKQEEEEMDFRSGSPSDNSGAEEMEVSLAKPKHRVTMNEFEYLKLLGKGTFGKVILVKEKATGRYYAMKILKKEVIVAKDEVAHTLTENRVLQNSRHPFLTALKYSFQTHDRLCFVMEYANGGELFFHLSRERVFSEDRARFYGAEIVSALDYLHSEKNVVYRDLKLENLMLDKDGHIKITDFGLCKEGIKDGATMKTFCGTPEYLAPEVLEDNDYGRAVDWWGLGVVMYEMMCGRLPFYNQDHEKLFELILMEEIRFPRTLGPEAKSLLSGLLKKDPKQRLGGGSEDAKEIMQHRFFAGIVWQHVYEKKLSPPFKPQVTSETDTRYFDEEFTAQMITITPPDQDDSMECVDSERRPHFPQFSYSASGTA
# Sequence of Signal transducer and activator of transcription 3 (Homo sapiens) (P40763 whole entry): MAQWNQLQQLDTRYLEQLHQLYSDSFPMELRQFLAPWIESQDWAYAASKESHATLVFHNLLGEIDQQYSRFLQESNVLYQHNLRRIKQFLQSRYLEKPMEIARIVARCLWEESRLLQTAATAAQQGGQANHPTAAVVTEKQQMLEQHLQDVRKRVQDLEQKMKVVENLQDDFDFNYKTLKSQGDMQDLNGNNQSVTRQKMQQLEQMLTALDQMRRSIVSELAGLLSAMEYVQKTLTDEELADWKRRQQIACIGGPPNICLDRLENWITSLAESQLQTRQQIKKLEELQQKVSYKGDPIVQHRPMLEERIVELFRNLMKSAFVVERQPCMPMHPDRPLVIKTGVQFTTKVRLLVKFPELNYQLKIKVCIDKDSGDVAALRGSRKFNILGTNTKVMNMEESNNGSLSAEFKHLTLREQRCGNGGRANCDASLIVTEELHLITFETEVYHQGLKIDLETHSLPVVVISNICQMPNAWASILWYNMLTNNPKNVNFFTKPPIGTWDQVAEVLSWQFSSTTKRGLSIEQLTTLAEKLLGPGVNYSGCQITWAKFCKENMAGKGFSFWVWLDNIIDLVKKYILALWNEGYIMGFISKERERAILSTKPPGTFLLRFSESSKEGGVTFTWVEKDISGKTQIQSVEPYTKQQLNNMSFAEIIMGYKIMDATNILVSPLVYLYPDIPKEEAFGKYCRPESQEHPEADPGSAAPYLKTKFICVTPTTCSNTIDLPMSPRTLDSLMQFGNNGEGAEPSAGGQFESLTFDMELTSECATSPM
# Sequence of Mitogen-activated protein kinase; ERK1/ERK2 (Homo sapiens) (P27361 whole entry, looked up): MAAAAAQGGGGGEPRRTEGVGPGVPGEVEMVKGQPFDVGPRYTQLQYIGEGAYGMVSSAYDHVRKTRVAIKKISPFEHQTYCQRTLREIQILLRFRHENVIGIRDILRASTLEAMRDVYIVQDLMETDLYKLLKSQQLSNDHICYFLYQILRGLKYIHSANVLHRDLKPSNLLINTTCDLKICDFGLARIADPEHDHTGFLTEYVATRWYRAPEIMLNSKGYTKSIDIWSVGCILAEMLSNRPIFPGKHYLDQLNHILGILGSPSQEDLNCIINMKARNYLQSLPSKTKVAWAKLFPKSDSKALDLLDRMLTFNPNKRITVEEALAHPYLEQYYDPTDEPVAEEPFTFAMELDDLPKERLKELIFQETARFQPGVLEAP
# Sequence of Mitogen-activated protein kinase; ERK1/ERK2 (Homo sapiens) (P28482 whole entry, looked up): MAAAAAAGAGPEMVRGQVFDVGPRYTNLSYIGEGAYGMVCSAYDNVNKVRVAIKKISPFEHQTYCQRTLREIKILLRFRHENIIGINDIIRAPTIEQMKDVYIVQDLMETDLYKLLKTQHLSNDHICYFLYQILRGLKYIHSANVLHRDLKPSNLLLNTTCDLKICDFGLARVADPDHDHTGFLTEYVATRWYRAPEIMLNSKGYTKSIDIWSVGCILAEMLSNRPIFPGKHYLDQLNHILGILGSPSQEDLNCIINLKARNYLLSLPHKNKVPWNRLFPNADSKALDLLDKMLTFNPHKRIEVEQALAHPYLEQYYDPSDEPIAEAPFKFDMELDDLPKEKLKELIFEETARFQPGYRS
structure (smiles),measurement,setting,value
COc1cc([C@@H]2c3cc4c(cc3[C@H](OC(=O)C(C)c3ccc(CC(C)C)cc3)[C@H]3COC(=O)[C@H]23)OCO4)cc(OC)c1OC (some centres not stated),IC50,Bel-7402,18.9 µM
same,IC50,Bel7402/5-FU [1],10.3 µM
same,IC50,L02,7.38 µM
same,Ratio IC50,[2],0.54
same,Activity,Bel7402/5-FU [3],8.88%
same,Activity,Bel7402/5-FU [4],27.34%
same,Activity,Bel7402/5-FU [5],63.78%
same,Activity,Bel7402/5-FU [6],Active
same,Activity,Bel7402/5-FU [7],Active
same,Activity,Bel7402/5-FU [8],Active
same,Activity,Bel7402/5-FU [9],Active
same,Activity,Bel7402/5-FU [10],62.05%
same,Activity,Bel7402/5-FU [11],7.12%
same,Activity,Bel7402/5-FU [12],21.24%
same,Activity,Bel7402/5-FU [13],9.59%
same,Activity,Bel7402/5-FU [14],Active
same,Activity,Bel7402/5-FU [15],Active
same,Activity,Bel7402/5-FU [16],Active
same,Ratio,Bel7402/5-FU [17],0.29
same,Ratio,Bel7402/5-FU [18],0.38
same,Ratio,Bel7402/5-FU [19],0.36
same,Ratio,Bel7402/5-FU [20],0.52
same,Ratio,Bel7402/5-FU [21],0.33
same,Ratio,Bel7402/5-FU [22],0.25
same,Ratio,Bel7402/5-FU [23],0.25
same,Ratio,Bel7402/5-FU [24],0.35
same,Ratio,Bel7402/5-FU [25],0.18
same,Ratio,Bel7402/5-FU [26],0.21
same,Ratio,Bel7402/5-FU [27],0.29
same,Ratio,Bel7402/5-FU [28],0.46
same,Ratio,Bel7402/5-FU [29],0.43
same,Ratio,Bel7402/5-FU [30],0.23
same,Ratio,Bel7402/5-FU [31],0.61
same,Ratio,Bel7402/5-FU [32],0.7
same,Ratio,[33],0.55
same,Ratio,[34],0.4
same,Ratio,[35],0.42
